In PubChem BioAssay (NCI):
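Following 48 hours of exposure in 96-well plates, responses at five concentrations were used to interpolate endpoints linearly. TGI: concentration producing complete growth inhibition.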

Assays:
Test in all cases: NCI anticancer screen, dose series, 48 h
[1] = tested on: RXF 393 renal
[2] = tested on: NCI-H23 lung
[3] = tested on: SNB-19 CNS
[4] = tested on: UACC-257 melanoma
[5] = tested on: HOP-62 NSCLC
[6] = tested on: HCC-2998 colon
[7] = tested on: A498 renal
[8] = tested on: SK-MEL-2 melanoma
[9] = tested on: SN12C renal
[10] = tested on: SF-268 CNS

Measured: TGI

COc1ccc(C(=C(C#N)C#N)c2ccc(OC)cc2)cc1
> 100 µM: [1] | [2] | [3] | [4] | [5] | [6] | [7] | [8] | [9] | [10]

CC(C)(C)n1nc(C2CC2)cc1NC(=O)Nc1ccc(Cl)cc1
> 100 µM: [1] | [2] | [3] | [4] | [5] | [6] | [7] | [8] | [9] | [10]

NNC(=O)C(O)C(O)C(O)CO (stereo not given)
> 100 µM: [1] | [2] | [3] | [4] | [5] | [6] | [7] | [8] | [9] | [10]

C/C(=N\NC(=O)C[n+]1ccccc1)c1sc(-c2nc(C)c(/C(C)=N/NC(=O)C[n+]3ccccc3)s2)nc1C
> 100 µM: [1] | [2] | [3] | [4] | [5] | [6] | [7] | [8] | [9] | [10]

CN(C)C(=O)C(NCCO)c1ccccc1 (stereo not given)
> 100 µM: [1] | [2] | [3] | [4] | [5] | [6] | [7] | [8] | [9] | [10]
